ChEMBL document CHEMBL1155869, “Red light-activated phosphorothioate oligodeoxyribonucleotides” (Bioorg Med Chem Lett, 2008)
Activity calls are given as the source filed them. The calls are words filed in the database; no cut-off is given here.

Tests used:
[1] = Binding affinity to complementary DNA
[2] = Binding affinity to complementary RNA

SMILES | Activity [1] | Activity [2]
Cc1cn([C@H]2C[C@H](OP(=O)(O)OC[C@H]3O[C@@H](n4ccc(N)nc4=O)[C@H](O)[C@@H]3OP(=O)(O)OC[C@H]3O[C@@H](n4cnc5c(=O)[nH]c(N)nc54)[C@H](O)[C@@H]3OP(=O)(O)OC[C@H]3O[C@@H](n4cnc5c(N)ncnc54)[C@H](O)[C@@H]3O)[C@@H](COP(=O)(O)O[C@H]3[C@@H](O)[C@H](n4ccc(N)nc4=O)O[C@@H]3COP(=O)(O)O[C@H]3[C@@H](O)[C@H](n4cnc5c(=O)[nH]c(N)nc54)O[C@@H]3COP(=O)(O)O[C@H]3[C@@H](O)[C@H](n4ccc(N)nc4=O)O[C@@H]3COP(=O)(O)O[C@H]3[C@@H](O)[C@H](n4cnc5c(N)ncnc54)O[C@@H]3CO)O2)c(=O)[nH]c1=O | Active | Active
Cc1cn([C@H]2C[C@H](OP(=O)(O)OC[C@H]3O[C@@H](n4ccc(N)nc4=O)[C@H](O)[C@@H]3OP(=O)(O)OC[C@H]3O[C@@H](n4cnc5c(=O)[nH]c(N)nc54)[C@H](O)[C@@H]3OP(=O)(O)OC[C@H]3O[C@@H](n4cnc5c(N)ncnc54)[C@H](O)[C@@H]3OP(=O)(O)OC[C@H]3O[C@@H](n4cnc5c(=O)[nH]c(N)nc54)[C@H](O)[C@@H]3OP(=O)(O)OC[C@H]3O[C@@H](n4ccc(N)nc4=O)[C@H](O)[C@@H]3OP(=O)(O)OC[C@H]3O[C@@H](n4cnc5c(=O)[nH]c(N)nc54)[C@H](O)[C@@H]3OP(=O)(O)OC[C@H]3O[C@@H](n4cc(C)c(=O)[nH]c4=O)C[C@@H]3OP(=O)(O)OC[C@H]3O[C@@H](n4cc(C)c(=O)[nH]c4=O)C[C@@H]3OP(=O)(O)OC[C@H]3O[C@@H](n4ccc(N)nc4=O)[C@H](O)[C@@H]3OP(=O)(O)OC[C@H]3O[C@@H](n4cc(C)c(=O)[nH]c4=O)C[C@@H]3OP(=O)(O)OC[C@H]3O[C@@H](n4ccc(N)nc4=O)[C@H](O)[C@@H]3O)[C@@H](CO)O2)c(=O)[nH]c1=O | Active | Active
Cc1cn([C@H]2C[C@H](OP(=O)(O)OC[C@H]3O[C@@H](n4ccc(N)nc4=O)[C@H](O)[C@@H]3OP(=O)(O)OC[C@H]3O[C@@H](n4cnc5c(=O)[nH]c(N)nc54)[C@H](O)[C@@H]3OP(=O)(O)OC[C@H]3O[C@@H](n4cnc5c(N)ncnc54)[C@H](O)[C@@H]3OP(=O)(O)OC[C@H]3O[C@@H](n4cnc5c(=O)[nH]c(N)nc54)[C@H](O)[C@@H]3OP(=O)(O)OC[C@H]3O[C@@H](n4ccc(N)nc4=O)[C@H](O)[C@@H]3OP(=O)(O)OC[C@H]3O[C@@H](n4cnc5c(=O)[nH]c(N)nc54)[C@H](O)[C@@H]3OP(=O)(O)OC[C@H]3O[C@@H](n4cc(C)c(=O)[nH]c4=O)C[C@@H]3OP(=O)(O)OC[C@H]3O[C@@H](n4cc(C)c(=O)[nH]c4=O)C[C@@H]3OP(=O)(O)OC[C@H]3O[C@@H](n4ccc(N)nc4=O)[C@H](O)[C@@H]3OP(=O)(O)OC[C@H]3O[C@@H](n4cc(C)c(=O)[nH]c4=O)C[C@@H]3OP(=O)(O)OC[C@H]3O[C@@H](n4ccc(N)nc4=O)[C@H](O)[C@@H]3OCCCS/C=C\SCCCOP(OC[C@H]3O[C@@H](n4cnc5c(N)ncnc54)[C@H](O)[C@@H]3OP(=O)(O)OC[C@H]3O[C@@H](n4ccc(N)nc4=O)[C@H](O)[C@@H]3OP(=O)(O)OC[C@H]3O[C@@H](n4cnc5c(=O)[nH]c(N)nc54)[C@H](O)[C@@H]3OP(=O)(O)OC[C@H]3O[C@@H](n4ccc(N)nc4=O)[C@H](O)[C@@H]3OP(=O)(O)OC[C@H]3O[C@@H](n4cc(C)c(=O)[nH]c4=O)C[C@@H]3OP(=O)(O)OC[C@H]3O[C@@H](n4ccc(N)nc4=O)[C@H](O)[C@@H]3OP(=O)(O)OC[C@H]3O[C@@H](n4cnc5c(=O)[nH]c(N)nc54)[C@H](O)[C@@H]3OP(=O)(O)OC[C@H]3O[C@@H](n4cnc5c(N)ncnc54)[C@H](O)[C@@H]3O)N(C(C)C)C(C)C)[C@@H](CO)O2)c(=O)[nH]c1=O (stereo partly specified) | inactive | inactive
